In EPA's CvTdb concentration-time database:

Assays:
[1] = test system: Rat; assay: concentration in plasma after dosing; conditions: 1.5 h; dosed: Potassium Perfluorobutane Sulfonate; 4 mg/kg; iv; Male; F344
[2] = test system: Rat; assay: concentration in plasma after dosing; conditions: dosed: Potassium Perfluorobutane Sulfonate, 4 mg/kg, iv, Male, F344
[3] = test system: Rat; assay: concentration in brain after dosing; conditions: 1 h; dosed: Potassium Perfluorobutane Sulfonate; 20 mg/kg; oral; Male; Harlan Sprague Dawley
[4] = test system: Rat; assay: concentration in plasma after dosing; conditions: dosed: Potassium Perfluorobutane Sulfonate, 4 mg/kg, iv, Male, F344; remark: listed apart in the source
[5] = test system: Rat; assay: concentration in plasma after dosing; conditions: dosed: Potassium Perfluorobutane Sulfonate, 4 mg/kg, iv, Male, F344; remark: listed apart in the source
[6] = test system: Rat; assay: concentration in brain after dosing; conditions: 3 h; dosed: Potassium Perfluorobutane Sulfonate; 20 mg/kg; oral; Male; Harlan Sprague Dawley
[7] = test system: Rat; assay: concentration in plasma after dosing; conditions: 0.5 h; dosed: Nitrite; 40 mg/kg; oral; Male; F344
[8] = test system: Rat; assay: concentration in plasma after dosing; conditions: dosed: Nitrite, 80 mg/kg, oral, Female, F344
[9] = test system: Rat; assay: concentration in plasma after dosing; conditions: 0.25 h; dosed: 2-Hydroxy-4-methoxybenzophenone; 500 mg/kg; oral; Male; F344
[10] = test system: Rat; assay: concentration in plasma after dosing; conditions: 4 h; dosed: 2-Hydroxy-4-methoxybenzophenone; 500 mg/kg; oral; Male; F344
[11] = test system: Rat; assay: concentration in plasma after dosing; conditions: 2.5 min; dosed: 2-Hydroxy-4-methoxybenzophenone; 500 mg/kg; oral; Female; F344
[12] = test system: Mouse; assay: concentration in plasma after dosing; conditions: 3 h; dosed: 2-Hydroxy-4-methoxybenzophenone; 250 mg/kg; oral; Female; B6C3F1
[13] = test system: Mouse; assay: concentration in plasma after dosing; conditions: 0.25 h; dosed: 2-Hydroxy-4-methoxybenzophenone; 50 mg/kg; iv; Female; B6C3F1
[14] = test system: rat; assay: amount in urine after dosing (umol); conditions: dosed: methanol, 100 mg/kg, iv, male, CDF(F344)/CrlBR
[15] = test system: Rat; assay: concentration in kidney after dosing; conditions: 12 h; dosed: Fluorotelomer alcohol 8+2; 80 mg/kg; oral; Female; Harlan Sprague Dawley
[16] = test system: Rat; assay: concentration in liver after dosing; conditions: 3 h; dosed: Perfluorooctanoic acid; 80 mg/kg; oral; Female; Harlan Sprague Dawley
[17] = test system: Rat; assay: concentration in liver after dosing; conditions: 6 h; dosed: Fluorotelomer alcohol 8+2; 80 mg/kg; oral; Female; Harlan Sprague Dawley
[18] = test system: Rat; assay: concentration in plasma after dosing; conditions: 3 h; dosed: Fluorotelomer alcohol 8+2; 12 mg/kg; oral; Male; Harlan Sprague Dawley
[19] = test system: Rat; assay: concentration in liver after dosing; conditions: 1 h; dosed: Fluorotelomer alcohol 8+2; 80 mg/kg; oral; Female; Harlan Sprague Dawley
[20] = test system: Rat; assay: concentration in kidney after dosing; conditions: 24 h; dosed: Perfluorooctanoic acid; 80 mg/kg; oral; Female; Harlan Sprague Dawley
[21] = test system: Rat; assay: concentration in kidney after dosing; conditions: 1 h; dosed: Fluorotelomer alcohol 8+2; 80 mg/kg; oral; Female; Harlan Sprague Dawley
[22] = test system: rat; assay: concentration in blood after dosing (ugEq/g tissue); conditions: dosed: benzo[a]pyrene, iv, male, Wistar

O=S(=O)([O-])C(F)(F)C(F)(F)C(F)(F)C(F)(F)F.[K+] [Potassium Perfluorobutane Sulfonate]
Conditions	concentration in brain [ng/g]	concentration in plasma [ng/mL]
[1]	–	2130
[3]	1210	–
[6]	552	–

Conditions	concentration in plasma [ng/mL]
[2], 3 h	12800
[2], 5 min	32200
[4], 0.75 h	24500
[4], 24 h	575
[5], 0.5 h	22200
[5], 12 h	938

O=N[O-] [Nitrite]
Conditions	concentration in plasma [ng/mL]
[7]	1900

[8]
Conditions	concentration in plasma [ng/mL]
0.5 h	5200
4 h	2300

COc1ccc(C(=O)c2ccccc2)c(O)c1 [2-Hydroxy-4-methoxybenzophenone]
Conditions	concentration in plasma [ng/mL]
[9]	403
[10]	345
[11]	12.8
[12]	36.8
[13]	5560

CO [methanol]
[14]
Conditions	amount in urine
0.9988 h	1.09
2.972 h	5.07
5.961 h	7.79
9.961 h	11.5
11.92 h	11.7
14.89 h	11.7

O=C(O)C(F)(F)C(F)(F)C(F)(F)C(F)(F)C(F)(F)C(F)(F)C(F)(F)F [Perfluorooctanoic acid]
Conditions	concentration in kidney [ng/g]	concentration in liver [ng/g]	concentration in plasma [ng/mL]
[15]	711	–	–
[16]	–	32900	–
[17]	–	1430	–
[18]	–	–	380
[19]	–	601	–
[20]	14000	–	–
[21]	568	–	–

c1ccc2c(c1)cc1ccc3cccc4ccc2c1c34 [benzo[a]pyrene]
concentration in blood, [22]
Conditions	2 mg/kg	6 mg/kg	15 mg/kg
0.5 h	0.66	2.42	13.8
0.75 h	0.47	1.99	10.6
1 h	0.42	1.72	8.52
1.5 h	0.17	0.5	7.16
2 h	0.35	0.14	3.93
3 h	–	0.03	1.86
4 h	–	–	0.19
5 h	–	0.01	0.09
5 min	2.64	4.66	28.8
6 h	–	–	0.05
8 h	–	–	0.02
10 min	1.85	5	29.8
20 min	1.2	3.78	15.9
24 h	–	–	0.015
32 h	–	–	0.002
